pIC50: −log10 of the molar value.
Key:
FAAH = target: T1, FAAH (Homo sapiens, UniProt O00519); assay: Assay Method 1: FAAH assay, 3H-anandamide hydrolysis in cell homogenate; assay type: biochemical; set-up: expressed in transfected cells; details: T84 or transfected SK-N-MC cell homogenate, 80 nM 3H-AEA, 1 h rt, > = solubility limit or highest concentration tested
T1 sequence (O00519 1-579): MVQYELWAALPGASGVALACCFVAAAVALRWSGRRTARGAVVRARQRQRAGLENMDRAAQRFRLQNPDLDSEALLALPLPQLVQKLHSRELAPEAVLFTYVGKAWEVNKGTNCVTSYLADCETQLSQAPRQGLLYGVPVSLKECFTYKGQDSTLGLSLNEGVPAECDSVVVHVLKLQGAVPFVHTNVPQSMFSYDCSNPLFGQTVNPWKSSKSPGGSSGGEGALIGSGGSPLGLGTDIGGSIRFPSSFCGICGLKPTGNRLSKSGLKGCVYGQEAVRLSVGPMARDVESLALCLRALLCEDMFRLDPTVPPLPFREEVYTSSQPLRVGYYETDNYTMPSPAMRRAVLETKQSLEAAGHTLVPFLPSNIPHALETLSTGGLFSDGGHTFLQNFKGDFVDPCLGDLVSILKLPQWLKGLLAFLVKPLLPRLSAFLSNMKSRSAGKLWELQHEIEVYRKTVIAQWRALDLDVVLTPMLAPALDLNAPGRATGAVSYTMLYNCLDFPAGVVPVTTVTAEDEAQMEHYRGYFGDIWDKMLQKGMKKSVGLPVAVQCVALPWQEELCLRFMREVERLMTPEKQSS
Description: A. Transfection of Cells with Human FAAH
(§1) A 10-cm tissue culture dish with a confluent monolayer of SK-N-MC cells was split 2 days (d) prior to transfection. Using sterile technique, the media was removed and the cells were detached from the dish by the addition of trypsin. One fifth of the cells were then placed onto a new 10-cm dish. Cells were grown in a 37° C. incubator with 5% CO2 in Minimal Essential Media Eagle with 10% Fetal Bovine Serum. After 2 d, cells were approximately 80% confluent. These cells were removed from the dish with trypsin and pelleted in a clinical centrifuge. The pellet was re-suspended in 400 μL complete media and transferred to an electroporation cuvette with a 0.4 cm gap between the electrodes. Supercoiled human FAAH cDNA (1 μg) was added to the cells and mixed. The voltage for the electroporation was set at 0.25 kV, and the capacitance was set at 960 μF. After electroporation, the cells were diluted into complete media (10 mL) and plated onto four 10-cm dishes. Because of the variability in the efficiency of electroporation, four different concentrations of cells were plated. The ratios used were 1:20, 1:10, and 1:5, with the remainder of the cells being added to the fourth dish. The cells were allowed to recover for 24 h before adding the selection media (complete media with 600 μg/mL G418). After 10 d, dishes were analyzed for surviving colonies of cells. Dishes with well-isolated colonies were used. Cells from individual colonies were isolated and tested.
(§2) The assay mixture consisted of 50 μL of the cell homogenate, 10 μL of the test compound, and 40 μL of anandamide [1-^3H-ethanolamine] (^3H-AEA, Perkin-Elmer, 10.3 Ci/mmol), which was added last, for a final tracer concentration of 80 nM. The reaction mixture was incubated at rt for 1 h. During the incubation, 96-well Multiscreen filter plates (catalog number MAFCNOB50; Millipore, Bedford, Mass., USA) were loaded with 25 μL of activated charcoal (Multiscreen column loader, catalog number MACL09625, Millipore) and washed once with 100 μL of MeOH. Also during the incubation, 96-well DYNEX MicroLite plates (catalog number NL510410) were loaded with 100 μL of MicroScint40 (catalog number 6013641, Packard Bioscience, Meriden, Conn., USA). After the 1 h incubation, 60 μL of the reaction mixture were transferred to the charcoal plates, which were then assembled on top of the DYNEX plates using Centrifuge Alignment Frames (catalog number MACF09604, Millipore). The unbound labeled ethanolamine was centrifuged through to the bottom plate (5 min at 2000 rpm), which was preloaded with the scintillant, as described above. The plates were sealed and left at rt for 1 h before counting on a Hewlett Packard TopCount.
(§3) Where activity is shown as greater than (>) a particular value, the value is the solubility limit of the compound in the assay medium or the highest concentration tested in the assay.

Rat FAAH = target: T2, Rat FAAH (Rattus norvegicus, UniProt P97612); assay: Assay Method 2: FAAH assay, 3H-anandamide hydrolysis in cell homogenate; assay type: biochemical; details: transfected SK-N-MC cell homogenate, 80 nM 3H-AEA, 1 h rt, > = solubility limit or highest concentration tested
T2 construct: expressed in transfected cells
T2 sequence (P97612 1-579): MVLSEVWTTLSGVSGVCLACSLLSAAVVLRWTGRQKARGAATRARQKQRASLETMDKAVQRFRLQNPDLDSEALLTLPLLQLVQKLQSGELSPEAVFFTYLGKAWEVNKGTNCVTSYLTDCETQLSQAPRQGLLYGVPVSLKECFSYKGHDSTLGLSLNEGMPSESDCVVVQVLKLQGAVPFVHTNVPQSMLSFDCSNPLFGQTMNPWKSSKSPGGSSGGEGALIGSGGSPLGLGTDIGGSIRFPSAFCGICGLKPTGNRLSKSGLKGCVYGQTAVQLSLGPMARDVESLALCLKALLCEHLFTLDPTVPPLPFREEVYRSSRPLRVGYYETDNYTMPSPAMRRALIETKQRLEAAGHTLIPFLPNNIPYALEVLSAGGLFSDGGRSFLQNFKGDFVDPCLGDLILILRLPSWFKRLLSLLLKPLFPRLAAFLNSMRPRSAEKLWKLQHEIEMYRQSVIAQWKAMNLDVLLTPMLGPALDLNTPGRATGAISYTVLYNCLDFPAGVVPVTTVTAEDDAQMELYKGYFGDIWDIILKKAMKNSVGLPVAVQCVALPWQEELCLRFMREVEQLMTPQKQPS
Description: A. Transfection of Cells with Rat FAAH
as §1, with “rat” for “human”
as §2, with “incubated at […] for 1” for “incubated at rt for 1”, “labeled ethanolamine . was centrifuged” for “labeled ethanolamine was centrifuged”
as §3

SMILES | pIC50 (FAAH) | pIC50 (Rat FAAH)
O=C(c1ncco1)C1CCN(S(=O)(=O)c2ccc(Cl)cc2)CC1 [Example 4, [1-(4-Chloro-benzenesulfonyl)-piperidin-4-yl]-oxazol-2-yl-methanone] | 5.92 | 5.10
O=C(c1ncco1)C1CCN(S(=O)(=O)c2cccc(Cl)c2)CC1 [Example 5, [1-(3-Chloro-benzenesulfonyl)-Diperidin-4-yl]-oxazol-2-yl-methanone] | 5.10 | 5.10
O=C(c1ncco1)C1CCN(S(=O)(=O)c2ccccc2Cl)CC1 [Example 6, [1-(2-Chloro-benzenesulfonyl)-piperidin-4-yl]-oxazol-2-yl-methanone] | 5.30 | 
COc1cccc(C(=O)N2CCC(C(=O)c3ncco3)CC2)c1 [Example 7, [1-(3-Methoxy-benzoyl)-piperidin-4-yl]-oxazol-2-yl-methanone] |  | < 5.00
COc1ccc(C(=O)N2CCC(C(=O)c3ncco3)CC2)cc1 [Example 9, [1-(4-Methoxy-benzoyl)-piperidin-4-yl]-oxazol-2-yl-methanone] | 5.15 | < 5.00
O=C(c1ncco1)C1CCN(C(=O)c2ccc(Cl)cc2)CC1 [Example 11, [1-(4-Chloro-benzoyl)-piperidin-4-yl]-oxazol-2-yl-methanone] | 5.67 | 5.12
O=C(c1ncco1)C1CCN(C(=O)c2cccc(Cl)c2)CC1 [Example 12, [1-(3-Chloro-benzoyl)-piperidin-4-yl]-oxazol-2-yl-methanone] | 5.05 | 
O=C(c1ncco1)C1CCN(C(=O)c2ccccc2Cl)CC1 [Example 13, [1-(2-Chloro-benzoyl)-piperidin-4-yl]-oxazol-2-yl-methanone] |  | < 5.00
O=C(c1ncco1)C1CCN(C(=O)CCc2ccccc2)CC1 [Example 14, 1-[4-(Oxazole-2-carbonyl)-piperidin-1-yl]-3-phenyl-propan-1-one] | 5.80 | 5.05
CC(C)COc1ccc(CN2CCC(C(=O)c3ncco3)CC2)cc1 [Example 17, [1-(4-Isobutoxy-benzyl)-piperidin-4-yl]-oxazol-2-yl-methanone] | 6.74 | 
CC(C)Oc1cccc(CN2CCC(C(=O)c3ncco3)CC2)c1 [Example 24, [1-(3-Isopropoxy-benzyl)-piperidin-4-yl]-oxazol-2-yl-methanone] | 6.93 | 
CCOc1ccc(CN2CCC(C(=O)c3ncco3)CC2)cc1 [Example 28, [1-(4-Ethoxy-benzyl)-piperidin-4-yl]-oxazol-2-yl-methanone] | 6.11 | 
O=C(c1ncco1)C1CCN(Cc2ccncc2)CC1 [Example 58, Oxazol-2-yl-(1-pyridin-4-ylmethyl-piperidin-4-yl)-methanone] |  | < 5.00
O=C(c1ncco1)C1CCN(Cc2cccnc2)CC1 [Example 59, Oxazol-2-yl-(1-pyridin-3-ylmethyl-piperidin-4-yl)-methanone] |  | < 5.00
CC(c1ccccc1)N1CCC(C(=O)c2ncco2)CC1 (stereo not drawn) [Example 90, Oxazol-2-yl-[1-(1-phenyl-ethyl)-piperidin-4-yl]-methanone] |  | < 5.00

The next lines start with the values.

pIC50 (FAAH) | pIC50 (Rat FAAH) | SMILES
7.00 | 6.00 | O=C(c1ncco1)C1CCN(S(=O)(=O)c2ccc3ccccc3c2)CC1 [Example 1, [1-(Naphthalene-2-sulfonyl)-piperidin-4-yl]-oxazol-2-yl-methanone]
 | < 5.00 | COc1ccc(S(=O)(=O)N2CCC(C(=O)c3ncco3)CC2)cc1 [Example 2, [1-(4-Methoxy-benzenesulfonyl)-piperidin-4-yl]-oxazol-2-yl-methanone]
5.10 |  | COc1cccc(S(=O)(=O)N2CCC(C(=O)c3ncco3)CC2)c1 [Example 3, [1-(3-Methoxy-benzenesulfonyl)-piperidin-4-yl]-oxazol-2-yl-methanone]
< 5.00 | < 5.00 | COc1ccccc1C(=O)N1CCC(C(=O)c2ncco2)CC1 [Example 8, [1-(2-Methoxy-benzoyl)-piperidin-4-yl]-oxazol-2-yl-methanone]
7.55 | 6.46 | O=C(c1ncco1)C1CCN(C(=O)c2ccc3ccccc3c2)CC1 [Example 10, [1-(Naphthalene-2-carbonyl)-piperidin-4-yl]-oxazol-2-yl-methanone]
6.70 |  | CN(C)c1ccc(CN2CCC(C(=O)c3ncco3)CC2)cc1 [Example 20, [1-(4-Dimethylamino-benzyl)-piperidin-4-yl]-oxazol-2-yl-methanone]
6.12 |  | O=C(c1ncco1)C1CCN(Cc2ccc(OC3CCCCC3)cc2)CC1 [Example 21, [1-(4-Cyclohexyloxy-benzyl)-piperidin-4-yl]-oxazol-2-yl-methanone]

From patent publication US20100292266A1, “Oxazolyl Piperidine Modulators of Fatty Acid Amide Hydrolase” (priority 2006, published 2010)
